Results as given in patent publication US20120040965A1, “SUBSTITUTED AZEPINO[4,3-B]INDOLES, PHARMACOLOGICAL COMPOSITION AND A METHOD FOR THE PRODUCTION AND USE THEREOF” (priority 2006, published 2012).

How the values were obtained:
[1] = tested on: cytosolic calcium ions concentration in cells; assay: Histamine-induced calcium streams in SK-N-SH cells, Phase 2 (acceleration of cytosolic calcium removal); type: cell-based; conditions: Homo sapiens, Phase 2: acceleration of intraplasmatic calcium removal, histamine 10 μM, read-out: pIC50 Phase 2 (converted)
Description: (§1) Tests of biological activity of compounds of general formula 1. In order to determine a physiological activity of the proposed compounds a focused library was compiled to include compounds of general formula 1, some of which are shown in Table 2 below. The compounds were tested as potential histamine H1 receptor antagonists, and their ability to regulate cytosolic calcium ions concentration in cells by blocking calcium channels regulated by intracellular calcium repositories was determined. Cells SK-N-SH (ATCC, USA) were grown on DMEM medium (Invitrogen, USA), containing 10% fetal calf serum (FBS) and antibiotic penicillin-streptomycin in CO2 incubator (5% CO2) until cell density was 1*10^5 cells/cm^2. The cells were removed from flask surface by reagent TrypLE Express (Invitrogen, USA), collected by centrifugation and resuspended in medium Hybridoma Serum Free Medium (HSFM, Sigma, USA) in concentration of 4*10^6 cells/ml. For measurement of cytosolic calcium concentration the cells were loaded with calcium sensitive fluorescent dye Fura 2 AM (Invitrogen, USA) by means of hatching of cells with a dye in suspension for 30 minutes at room temperature. The cells were collected by centrifugation, resuspended in HSFM, incubated in suspension for 15 minutes, collected by centrifugation, washed twice in HSFM and resuspended in HSFM in concentration of 4*10^6 cells/ml.
(§2) Registration of calcium streams in cells was carried out using spectrofluorometer Shimadzu-RF5301PC. The cells were diluted with buffer (NaCl 0.145 M, KCl 0.0054 M, NaH2PO4 0.001 M, MgSO4 0.0008 M, CaCl2 0.0018 M, HEPES 0.03 M, D-glucose 0.0112 M pH 7.4) till concentration 1*10^5 cells/ml in measuring cuvette provided with magnetic stirrer, and fluorescence was registered using a regime of two-wave excitement (340 and 380 nm, respectively) at wavelength of emission 510 nm (F1 and F2, respectively). In 20 seconds after beginning of registration 10 mM of histamine water solution was added (final concentration is 10 μM). In another 30 seconds, after achievement of calcium cytosolic concentration peak a solution of tested compound in DMSO was added and registration was continued for 3 minutes. Serial dilutions of the compounds in dimethylsulfoxide (DMSO) were prepared for determination of their biological activity, and the effect of the concentration of compound on the calcium streams induced by histamine was determined.
(§3) Transformation of fluorescence signal into calcium concentration was carried out by means of equation imbedded in program Super Ion Probe (Shimadzu), for which maximum of free calcium concentration by addition of digitonin (Sigma, USA) up to concentration of 0.1 mg/ml and zero calcium concentration by addition of ethylenediamine-tetraacetate (EDTA) up to concentration of 10 mM were determined. Kinetic curves of cytosolic calcium decrease after addition of tested compound compared to concentration after addition of histamine were calculated using single-phase exponential model by means of Prism 4 (GraphPad Software, Inc.) program:
[Ca]=[Ca]max*exp(−K*T)+[Ca]min,
wherein T means time after addition of tested compound, [Ca]max and [Ca]min correspond to maximum (peak meaning after addition of histamine) and minimum (equilibrium level to which the curve converges after addition of tested compound) concentrations of cytosolic calcium, and K means a kinetic constant of the decrease of cytosolic calcium concentration which is calculated by minimization of the least squares of deviations.
The dependence of calculated constants of calcium decreasing (K) on the concentration of tested compound (C) was drawn up, and using this dependence by means of program Prism 4 the value of EC50 (concentration of tested compound corresponding to half-maximum increase of a kinetic constant of cytozoic calcium concentration decrease) was defined using four parametrical equation. […]

[2] = biological target: T1, histamine H1 receptor (Homo sapiens, UniProt P35367); assay: Histamine-induced calcium streams in SK-N-SH cells, Phase 1 (H1 receptor antagonism); type: cell-based; conditions: Phase 1: compounds prevent calcium ions entry in cells by antagonistic action on H1-receptors, histamine 10 μM, read-out: pIC50 Phase 1 (converted)
T1 construct: host or cells: SK-N-SH
T1 sequence (P35367 whole entry): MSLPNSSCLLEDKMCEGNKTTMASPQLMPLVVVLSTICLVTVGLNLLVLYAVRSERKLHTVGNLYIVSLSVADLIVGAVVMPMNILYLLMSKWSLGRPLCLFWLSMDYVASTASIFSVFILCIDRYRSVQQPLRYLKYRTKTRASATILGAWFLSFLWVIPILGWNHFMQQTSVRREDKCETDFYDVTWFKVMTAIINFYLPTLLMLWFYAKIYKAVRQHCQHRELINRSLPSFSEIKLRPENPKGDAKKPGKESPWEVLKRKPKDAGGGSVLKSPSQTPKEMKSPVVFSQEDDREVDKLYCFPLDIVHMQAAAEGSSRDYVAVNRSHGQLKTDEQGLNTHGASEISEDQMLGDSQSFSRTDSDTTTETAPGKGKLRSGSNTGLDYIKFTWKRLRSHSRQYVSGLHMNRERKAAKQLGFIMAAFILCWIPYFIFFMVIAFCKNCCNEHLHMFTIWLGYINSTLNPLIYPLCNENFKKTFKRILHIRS
Description: as §1, §2
as §3, with “program: […]” for “program:”
In Table 2 below the values corresponding to the reciprocal logarithm of EC50(−LogEC50=pEC50) for some of tested compounds of general formula 1 used as measures of these compounds activity are presented.

Question: What does the source list for `Cc1ccc2c(c1)[C@@H]1CN(C)CCC[C@H]1N2CCc1ccccn1` (relative stereo) [1.2.5(1), trans-2,9-dimethyl-6-[2-(pyridin-2-yl)ethyl]-1,2,3,4,5,5a,6,10b-octahydroazepino[4,3-b]indole]?
Answer: IC50 [1]: 2510 nM; IC50 [2]: 1000 nM

Question: For `Cc1ccc2c(c1)[C@@H]1CN(C)CCC[C@H]1N2CCc1ccc(C)nc1` (relative stereo) [1.2.5(2), trans-2,9-dimethyl-6-[2-(6-methylpyridin-3-yl)ethyl]-1,2,3,4,5,5a,6,10b-octahydroazepino[4,3-b]indole], which IC50 [1] is on record?
Answer: 1000 nM

Question: What about the IC50 [2] of the same compound?
Answer: 251 nM

Question: Which results are given for `Cc1ccc2c(c1)[C@@H]1CN(C)CCC[C@H]1N2CCc1ccncc1` (relative stereo) [1.2.5(3), trans-2,9-dimethyl-6-[2-(pyridin-4-yl)ethyl]-1,2,3,4,5,5a,6,10b-octahydroazepino[4,3-b]indole]?
Answer: IC50 [1]: 1000 nM; IC50 [2]: 158 nM

Question: What does the source list for `Cc1ccc2c(c1)[C@@H]1CN(C)CCC[C@H]1N2CCc1cccnc1` (relative stereo) [1.2.5(4), trans-2,9-dimethyl-6-[2-(pyridin-3-yl)ethyl]-1,2,3,4,5,5a,6,10b-octahydroazepino[4,3-b]indole]?
Answer: IC50 [1]: 2510 nM; IC50 [2]: 158 nM

Question: Which results are given for `CN1CCC[C@@H]2[C@@H](C1)c1cc(F)ccc1N2CCc1cccnc1` (relative stereo) [1.2.5(5), trans-2-methyl-6-[2-(pyridin-3-yl)ethyl]-9-fluoro-1,2,3,4,5,5a,6,10b-octahydroazepino[4,3-b]indole]?
Answer: IC50 [1]: 631 nM; IC50 [2]: 126 nM

Question: What does the source list for `CN1CCC[C@@H]2[C@@H](C1)c1cc(-c3ccncc3)ccc1N2CCc1cccnc1` (relative stereo) [1.2.5(6), trans-2-methyl-6-[2-(pyridin-3-yl)ethyl]-9-(pyridin-4-yl)-1,2,3,4,5,5a,6,10b-octahydroazepino[4,3-b]indole]?
Answer: IC50 [1]: 1000 nM; IC50 [2]: 251 nM

Question: How did the IC50 [1] turn out when `Cc1ccc2c(c1)[C@@H]1CN(C)CCC[C@H]1N2Cc1ccccc1` (relative stereo) [1.2.6(1), trans-6-benzyl-2,9-dimethyl-1,2,3,4,5,5a,6,10b-octahydroazepino[4,3-b]indole] was run?
Answer: 631 nM

Question: And the IC50 [2]?
Answer: 126 nM

Question: For `Cc1ccc2c(c1)[C@@H]1CN(C)CCC[C@H]1N2Cc1ccc(C(=O)O)cc1` (relative stereo) [1.2.6(2), trans-4-(2,9-dimethyl-1,2,3,4,5,5a,10b-octahydroazepino[4,3-b]indol-6-ylmethyl)benzoic acid], which IC50 [1] is on record?
Answer: > 100000 nM

Question: And the IC50 [2]?
Answer: > 100000 nM

Question: What does the source list for `Cc1ccc2c(c1)[C@@H]1CN(C)CCC[C@H]1N2CCc1ccccc1` (relative stereo) [1.2.6(3), trans-2,9-dimethyl-6-phenethyl-1,2,3,4,5,5a,6,10b-octahydroazepino[4,3-b]indole]?
Answer: IC50 [1]: 2000 nM; IC50 [2]: 158 nM

Question: Which IC50 [1] does the source give for `Cc1ccc2c(c1)[C@@H]1CN(C)CCC[C@H]1N2Cc1ccccn1` (relative stereo) [1.2.6(4), trans-2,9-dimethyl-6-(pyridin-2-ylmethyl)-1,2,3,4,5,5a,6,10b-octahydroazepino[4,3-b]indole] here?
Answer: 1580 nM

Question: And the IC50 [2]?
Answer: 631 nM

Question: With `Cc1ccc2c(c1)[C@@H]1CN(C)CCC[C@H]1N2Cc1cccnc1` (relative stereo) [1.2.6(5), trans-2,9-dimethyl-6-(pyridin-3-ylmethyl)-1,2,3,4,5,5a,6,10b-octahydroazepino[4,3-b]indole] as the compound, how does the IC50 [1] read?
Answer: 1580 nM

Question: And the IC50 [2]?
Answer: 100 nM

Question: Which results are given for `Cc1ccc2c(c1)[C@@H]1CN(C)CCC[C@H]1N2Cc1ccncc1` (relative stereo) [1.2.6(6), trans-2,9-dimethyl-6-(pyridin-4-ylmethyl)-1,2,3,4,5,5a,6,10b-octahydroazepino[4,3-b]indole]?
Answer: IC50 [1]: 5010 nM; IC50 [2]: 200 nM

Question: What does the source list for `Cc1ccc2c(c1)[C@@H]1CN(C)CCC[C@H]1N2C(=O)c1ccccc1` (relative stereo) [1.2.7(3), trans-6-benzoyl-2,9-dim ethyl-1,2,3,4,5,5a,6,10b-octahydroazepino[4,3-b]indole]?
Answer: IC50 [1]: > 100000 nM; IC50 [2]: > 100000 nM

Question: Which results are given for `CC(=O)N1c2ccc(C)cc2[C@@H]2CN(C)CCC[C@H]21` (relative stereo) [1.2.7(4), trans-6-acetyl-2,9-dimethyl-1,2,3,4,5,5a,6,10b-octahydroazepino[4,3-b]indole]?
Answer: IC50 [1]: > 100000 nM; IC50 [2]: > 100000 nM

Question: For `Cc1ccc2[nH]c3c(c2c1)CN(C)CCC3` [1.1.3.3(1), 2,9-dimethyl-1,2,3,4,5,6-hexahydroazepino[4,3-b]indole], which IC50 [1] is on record?
Answer: > 100000 nM

Question: What about the IC50 [2] of the same compound?
Answer: > 100000 nM

Question: Which IC50 [1] does the source give for `Cc1ccc2[nH]c3c(c2c1)CN(C(=O)c1ccccc1)CCC3` [1.1.3.4(1), 2-benzoyl-9-methyl-1,2,3,4,5,6-hexahydroazepino[4,3-b]indole] here?
Answer: > 100000 nM

Question: And the IC50 [2]?
Answer: > 100000 nM

Question: Which IC50 [1] does the source give for `Cc1ccc2[nH]c3c(c2c1)CN(C(=O)Nc1ccccc1)CCC3` [1.1.3.5(1), 2-phenylcarbamoyl-9-methyl-1,2,3,4,5,6-hexahydroazepino[4,3-b]indole] here?
Answer: > 100000 nM

Question: What about the IC50 [2] of the same compound?
Answer: > 100000 nM

Question: With `Cc1ccc2[nH]c3c(c2c1)CN(S(=O)(=O)c1ccccc1)CCC3` [1.1.3.6(1), 2-phenylsulfonyl-9-methyl-1,2,3,4,5,6-hexahydroazepino[4,3-b]indole] as the compound, how does the IC50 [1] read?
Answer: > 100000 nM

Question: And the IC50 [2]?
Answer: > 100000 nM

Question: Which results are given for `Cc1ccc2c(c1)c1c(n2CCc2ccccn2)CCCN(C)C1` [1.1.5(1), 2,9-dimethyl-6-[2-(pyridin-2-yl)ethyl]-1,2,3,4,5,6-hexahydroazepino[4,3-b]indole]?
Answer: IC50 [1]: 3160 nM; IC50 [2]: 3160 nM

Question: What does the source list for `Cc1ccc2c(c1)c1c(n2CCc2ccc(C)nc2)CCCN(C)C1` [1.1.5(2), 2,9-dimethyl-6-[2-(6-methylpyridin-3-yl)ethyl]-1,2,3,4,5,6-hexahydroazepino[4,3-b]indole]?
Answer: IC50 [1]: 1580 nM; IC50 [2]: 316 nM

Question: How did the IC50 [1] turn out when `Cc1ccc2c(c1)c1c(n2CCc2ccncc2)CCCN(C)C1` [1.1.5(3), 2,9-dimethyl-6-[2-(pyridin-4-yl)ethyl]-1,2,3,4,5,6-hexahydroazepino[4,3-b]indole] was run?
Answer: 1260 nM

Question: What about the IC50 [2] of the same compound?
Answer: 200 nM

Question: How did the IC50 [1] turn out when `Cc1ccc2c(c1)c1c(n2CCc2cccnc2)CCCN(C)C1` [1.1.5(5)] was run?
Answer: 3160 nM

Question: And the IC50 [2]?
Answer: 501 nM
